“And” between values parts separate entries of the source, which are not always exact repeats. Equal entries are not always repeated. Toxic doses and inconclusive results are not listed. No stated cut-off is given here; in the data, active means T/C of 150% or more; inactive means T/C below 125%.
System: L1210 leukemia ip in BDF1 mice, survival T/C
Assay: NCI In Vivo Anticancer Drug Screen. Data for tumor model L1210 Leukemia (intraperitoneal) in B6D2F1 (BDF1) mice
Conditions: endpoint: mean survival time, higher = longer survival
How it was run: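 Tumor cells were implanted, animals were treated, and survival was followed. The result divides the treated measurement by the vehicle-control measurement.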

[1] = dose: 100.0 mg/kg/injection, schedule: Q01DX001 (ip), vehicle: saline
[2] = dose: 100.0 mg/kg/injection, schedule: Q01DX009 (ip), vehicle: saline
[3] = dose: 100.0 mg/kg/injection, schedule: Q04DX003 (ip), vehicle: saline
[4] = dose: 200.0 mg/kg/injection, schedule: Q01DX001 (ip), vehicle: saline
[5] = dose: 200.0 mg/kg/injection, schedule: Q01DX009 (ip), vehicle: saline
[6] = dose: 200.0 mg/kg/injection, schedule: Q04DX003 (ip), vehicle: saline
[7] = dose: 400.0 mg/kg/injection, schedule: Q01DX001 (ip), vehicle: saline
[8] = dose: 400.0 mg/kg/injection, schedule: Q01DX009 (ip), vehicle: saline
[9] = dose: 400.0 mg/kg/injection, schedule: Q04DX003 (ip), vehicle: saline
[10] = dose: 100.0 mg/kg/injection, schedule: Q04DX003 (ip), vehicle: saline with Tween-80
[11] = dose: 200.0 mg/kg/injection, schedule: Q04DX003 (ip), vehicle: saline with Tween-80
[12] = dose: 100.0 mg/kg/injection, schedule: Q01DX009 (ip), vehicle: Klucel (hydroxypropylcellulose) (HPC)
[13] = dose: 100.0 mg/kg/injection, schedule: Q04DX003 (ip), vehicle: Klucel (hydroxypropylcellulose) (HPC)
[14] = dose: 200.0 mg/kg/injection, schedule: Q01DX009 (ip), vehicle: Klucel (hydroxypropylcellulose) (HPC)
[15] = dose: 200.0 mg/kg/injection, schedule: Q04DX003 (ip), vehicle: Klucel (hydroxypropylcellulose) (HPC)
[16] = dose: 400.0 mg/kg/injection, schedule: Q01DX009 (ip), vehicle: Klucel (hydroxypropylcellulose) (HPC)
[17] = dose: 400.0 mg/kg/injection, schedule: Q04DX003 (ip), vehicle: Klucel (hydroxypropylcellulose) (HPC)
[18] = dose: 100.0 mg/kg/injection, schedule: Q01DX001 (ip), vehicle: carboxymethylcellulose (CMC)
[19] = dose: 200.0 mg/kg/injection, schedule: Q01DX001 (ip), vehicle: carboxymethylcellulose (CMC)
[20] = dose: 400.0 mg/kg/injection, schedule: Q01DX001 (ip), vehicle: carboxymethylcellulose (CMC)
[21] = dose: 100.0 mg/kg/injection, schedule: Q01DX001 (ip), vehicle: Klucel (hydroxypropylcellulose) (HPC)
[22] = dose: 200.0 mg/kg/injection, schedule: Q01DX001 (ip), vehicle: Klucel (hydroxypropylcellulose) (HPC)

Measured: T/C

NC(N)=NCCCC(N)C(=O)O (configuration not stated)
inactive: dose: 25.0 mg/kg/injection, schedule: Q04DX002 (ip), vehicle: saline 97 % of control | dose: 50.0 mg/kg/injection, schedule: Q04DX002 (ip), vehicle: saline 113 % of control | [1] 97 % of control | [2] 119 % of control | dose: 100.0 mg/kg/injection, schedule: Q04DX002 (ip), vehicle: saline 103 % of control and 97 % of control | [3] 102 % of control and 94 % of control | [4] 100 % of control | [5] 95 % of control | dose: 200.0 mg/kg/injection, schedule: Q04DX002 (ip), vehicle: saline 94 % of control | [6] 105 % of control and 90 % of control | [7] 103 % of control | [8] 97 % of control | dose: 400.0 mg/kg/injection, schedule: Q04DX002 (ip), vehicle: saline 94 % of control | [9] 109 % of control and 97 % of control

Cn1c(C(O)(Cc2ccccn2)Cc2ccccn2)cc2ccccc21
inactive: dose: 100.0 mg/kg/injection, schedule: Q04DX002 (ip), vehicle: saline with Tween-80 90 % of control | dose: 200.0 mg/kg/injection, schedule: Q04DX002 (ip), vehicle: saline with Tween-80 90 % of control | dose: 400.0 mg/kg/injection, schedule: Q04DX002 (ip), vehicle: saline with Tween-80 97 % of control

O=[N+]([O-])c1cc(S(=O)(=O)O)cc(S(=O)(=O)O)c1O
inactive: [2] 102 % of control | [3] 94 % of control | [5] 94 % of control | [6] 100 % of control | [8] 91 % of control | [9] 93 % of control

Oc1ccc2ccccc2c1N=Nc1ccc(N=Nc2ccccc2)cc1
inactive: dose: 100.0 mg/kg/injection, schedule: Q01DX009 (ip), vehicle: saline with Tween-80 102 % of control | dose: 200.0 mg/kg/injection, schedule: Q01DX009 (ip), vehicle: saline with Tween-80 106 % of control | dose: 400.0 mg/kg/injection, schedule: Q01DX009 (ip), vehicle: saline with Tween-80 102 % of control

O=C(O)/C=C(/Cl)c1ccccc1
inactive: [10] 102 % of control | [11] 100 % of control | dose: 400.0 mg/kg/injection, schedule: Q04DX003 (ip), vehicle: saline with Tween-80 108 % of control

O=C(Cc1ccccc1)OCC#CC#CCOC(=O)Cc1ccccc1
inactive: [12] 103 % of control | [13] 92 % of control | [14] 98 % of control | [15] 91 % of control | [16] 97 % of control | [17] 92 % of control

Cc1cccc(N2CCC3(CC2)C(=O)NC(=O)NC3=O)c1
inactive: [1] 94 % of control | [4] 97 % of control | [7] 100 % of control

O=C(C[n+]1ccc2ccccc2c1)c1ccc2ccccc2c1
inactive: dose: 6.25 mg/kg/injection, schedule: Q01DX009 (ip), vehicle: saline with Tween-80 95 % of control | dose: 12.5 mg/kg/injection, schedule: Q01DX009 (ip), vehicle: saline with Tween-80 87 % of control | dose: 25.0 mg/kg/injection, schedule: Q01DX009 (ip), vehicle: saline with Tween-80 90 % of control

COc1ccc(C(OC(=O)c2ccc([N+](=O)[O-])cc2)c2ccccc2)cc1 (configuration not stated)
inactive: [18] 88 % of control | [19] 91 % of control | [20] 93 % of control

O=S(=O)(Nc1ccc(N(c2c(Cl)c(Cl)c(NS(=O)(=O)c3ccccc3)c(Cl)c2Cl)S(=O)(=O)c2ccccc2)cc1)c1ccccc1
inactive: [21] 93 % of control | [22] 96 % of control | dose: 400.0 mg/kg/injection, schedule: Q01DX001 (ip), vehicle: Klucel (hydroxypropylcellulose) (HPC) 95 % of control

COc1ccccc1-n1c(O)c(N=Nc2ccc(Br)cc2)c(=O)n(-c2ccc(I)cc2)c1=S
inactive: dose: 50.0 mg/kg/injection, schedule: Q01DX001 (ip), vehicle: Klucel (hydroxypropylcellulose) (HPC) 102 % of control | [21] 112 % of control | [22] 102 % of control

O=C(Nc1ccc(C2=NCCN2)cc1)Nc1cc(NC(=O)Nc2ccc(C3=NCCN3)cc2)cc(C(=O)O)c1
inactive: dose: 120.0 mg/kg/injection, schedule: Q01DX Z (ip), vehicle: carboxymethylcellulose (CMC) 106 % of control | dose: 240.0 mg/kg/injection, schedule: Q01DX Z (ip), vehicle: carboxymethylcellulose (CMC) 102 % of control | dose: 250.0 mg/kg/injection, schedule: Q01DX Z (ip), vehicle: water 93 % of control | dose: 500.0 mg/kg/injection, schedule: Q01DX Z (ip), vehicle: water 94 % of control

CC1SC(c2ccccc2)N(c2ccccc2)C1=O (configuration not stated)
inactive: [12] 98 % of control | [13] 100 % of control | [14] 114 % of control | [15] 98 % of control | [16] 106 % of control | [17] 100 % of control

CC(=O)c1ccccc1Br
inactive: [14] 100 % of control | [16] 97 % of control

COc1cc(-c2[o+]c3cc(O)cc(O)c3cc2OC2OC(CO)C(O)C(O)C2O)cc(OC)c1O (configuration not stated)
inactive: [18] 92 % of control | dose: 100.0 mg/kg/injection, schedule: Q04DX003 (ip), vehicle: saline sonified 98 % of control | [19] 101 % of control | [20] 100 % of control

C#CC(NCCC(C)CC(C)(C)C)C(C)C (configuration not stated)
inactive: [10] 103 % of control | [11] 90 % of control

COc1ccccc1NC(=O)NO
inactive: [18] 97 % of control | [19] 97 % of control | [20] 100 % of control

CC/C(CC(C)CC)=N\O (configuration not stated)
inactive: [2] 101 % of control | [3] 93 % of control | [5] 101 % of control | [6] 98 % of control | [8] 101 % of control | [9] 91 % of control

From PubChem BioAssay AID248 (DTP/NCI, 2004)
